Test results: US11078198B2 (BRISTOL-MYERS SQUIBB COMPANY, priority 2017, dated 2021)
pEC50: −log10 of the molar value.

Target: T1, human FXR (Homo sapiens, UniProt Q96RI1)
T1 construct: expressed in transfected cells; host or cells: HEK293 cells stably carrying a 5xGal4-response-element firefly luciferase reporter, transiently transfected with pcDNA3.1-Gal4-FXR
T1 sequence (Q96RI1 262-486 limits assumed): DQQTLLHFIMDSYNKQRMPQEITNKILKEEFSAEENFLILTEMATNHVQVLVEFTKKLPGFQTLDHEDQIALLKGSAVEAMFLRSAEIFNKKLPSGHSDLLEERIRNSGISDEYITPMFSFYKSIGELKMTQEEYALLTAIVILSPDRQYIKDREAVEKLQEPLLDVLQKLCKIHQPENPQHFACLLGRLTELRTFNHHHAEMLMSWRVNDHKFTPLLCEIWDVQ
Assay: transient human FXR/Gal4-luciferase reporter assay
Format: cell-based
Conditions: Gal4-hFXR transfected HEK293 reporter cells; relative to 8 μM GW-4064
Method in brief: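 Transient Gal4-hFXR LBD fusion (pcDNA3.1, Lipofectamine, overnight) expressed in a HEK293 reporter line stably bearing five Gal4 elements upstream of firefly luciferase, grown in charcoal/dextran-stripped FBS. Compound dilutions in DMSO incubated with cells overnight at 37° C, 5% CO2, before luciferase readout.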

SMILES	pEC50
O=C(O)c1cc2ccc(N3CCC4(C=C(c5c(-c6cnccc6C(F)(F)F)noc5C5CC5)C4)CC3)cc2nn1 [Example 81, 7-(2-(5-Cyclopropyl-3-(4-(trifluoromethyl)pyridin-3-yl)isoxazol-4-yl)-7-azaspiro[3.5]non-1-en-7-yl)cinnoline-3-carboxylic acid]	5.81
O=C(O)c1cc(C(F)(F)F)c2cc(N3CCC4(C=C(c5c(-c6c(Cl)cc(F)cc6Cl)noc5C5CC5)C4)CC3)ccc2n1 [Example 86, 6-(2-(5-Cyclopropyl-3-(2,6-dichloro-4-fluorophenyl)isoxazol-4-yl)-7-azaspiro[3.5]non-1-en-7-yl)-4-(trifluoromethyl)quinoline-2-carboxylic acid]	7.17
Cc1cc(C(=O)O)nc2ccc(N3CCC4(C=C(c5c(-c6c(Cl)cncc6Cl)noc5C5CC5)C4)CC3)cc12 [Example 87, 6-(2-(5-Cyclopropyl-3-(3,5-dichloropyridin-4-yl)isoxazol-4-yl)-7-azaspiro[3.5]non-1-en-7-yl)-4-methylquinoline-2-carboxylic acid]	7.12
O=C(O)c1cc(C(F)(F)F)c2cc(N3CCC4(C=C(c5c(-c6cnccc6C(F)(F)F)noc5C5CC5)C4)CC3)ccc2n1 [Example 90, 6-(2-(5-Cyclopropyl-3-(4-(trifluoromethyl)pyridin-3-yl)isoxazol-4-yl)-7-azaspiro[3.5]non-1-en-7-yl)-4-(trifluoromethyl)quinoline-2-carboxylic acid]	6.71
O=C(O)c1cc(C(F)(F)F)c2cc(N3CCC4(C=C(c5c(-c6ncccc6Cl)noc5C5CC5)C4)CC3)ccc2n1 [Example 91, 6-(2-(3-(3-Chloropyridin-2-yl)-5-cyclopropylisoxazol-4-yl)-7-azaspiro[3.5]non-1-en-7-yl)-4-(trifluoromethyl)quinoline-2-carboxylic acid]	6.66
O=C(O)c1cc(C(F)(F)F)c2cc(N3CCC4(C=C(c5c(-c6cccnc6C(F)(F)F)noc5C5CC5)C4)CC3)ccc2n1 [Example 92, 6-(2-(5-Cyclopropyl-3-(2-(trifluoromethyl)pyridin-3-yl)isoxazol-4-yl)-7-azaspiro[3.5]non-1-en-7-yl)-4-(trifluoromethyl)quinoline-2-carboxylic acid]	6.60
O=C(O)c1cc(C(F)(F)F)c2cc(N3CCC4(C=C(c5c(-c6c(F)cncc6F)noc5C5CC5)C4)CC3)ccc2n1 [Example 93, 6-(2-(5-Cyclopropyl-3-(3,5-difluoropyridin-4-yl)isoxazol-4-yl)-7-azaspiro[3.5]non-1-en-7-yl)-4-(trifluoromethyl)quinoline-2-carboxylic acid]	6.29
CC(C)c1onc(-c2c(Cl)cncc2Cl)c1C1=CC2(CCN(c3ccc4nc(C(=O)O)cc(C(F)(F)F)c4c3)CC2)C1 [Example 95, 6-(2-(3-(3,5-Dichloropyridin-4-yl)-5-isopropylisoxazol-4-yl)-7-azaspiro[3.5]non-1-en-7-yl)-4-(trifluoromethyl)quinoline-2-carboxylic acid]	7.43
O=C(O)c1cc(C(F)(F)F)c2cc(N3CCC4(C=C(c5c(-c6ccccc6C(F)(F)F)noc5C5CC5)C4)CC3)ccc2n1 [Example 99, 6-(2-(5-Cyclopropyl-3-(2-(trifluoromethyl)phenyl)isoxazol-4-yl)-7-azaspiro[3.5]non-1-en-7-yl)-4-(trifluoromethyl)quinoline-2-carboxylic acid]	7.04
O=C(O)c1ccc2nc(N3CCC4(C=C(c5c(-c6c(Cl)cccc6Cl)noc5C5CC5)C4)CC3)cnc2c1 [Example 100, 2-(2-(5-cyclopropyl-3-(2,6-dichlorophenyl)isoxazol-4-yl)-7-azaspiro[3.5]non-1-en-7-yl)quinoxaline-6-carboxylic acid]	7.48
O=C(O)c1ccc2nc(N3CCC4(C=C(c5c(-c6ccccc6C(F)(F)F)noc5C5CC5)C4)CC3)cnc2c1 [Example 101, 2-(2-(5-Cyclopropyl-3-(2-(trifluoromethyl)phenyl)isoxazol-4-yl)-7-azaspiro[3.5]non-1-en-7-yl)quinoxaline-6-carboxylic acid]	7.77
CC(C)Oc1cc(C(=O)O)nc2ccc(N3CCC4(C=C(c5c(-c6ccccc6OC(F)(F)F)noc5C5CC5)C4)CC3)cc12 [Example 106, 6-(2-(5-Cyclopropyl-3-(2-(trifluoromethoxy)phenyl)isoxazol-4-yl)-7-azaspiro[3.5]non-1-en-7-yl)-4-isopropoxyquinoline-2-carboxylic acid]	7.68

The remaining compounds from weak to strong by pEC50, led by results:

pEC50	SMILES
5.71	COc1cncc(F)c1-c1noc(C2CC2)c1C1=CC2(CCN(c3ccc4nc(C(=O)O)cc(C(F)(F)F)c4c3)CC2)C1 [Example 97, 6-(2-(5-Cyclopropyl-3-(3-fluoro-5-methoxypyridin-4-yl)isoxazol-4-yl)-7-azaspiro[3.5]non-1-en-7-yl)-4-(trifluoromethyl)quinoline-2-carboxylic acid]
5.76	O=C(O)c1cc(C(F)(F)F)c2cc(N3CCC4(C=C(c5c(C6CCCCC6)noc5C5CC5)C4)CC3)ccc2n1 [Example 98, 6-(2-(3-Cyclohexyl-5-cyclopropylisoxazol-4-yl)-7-azaspiro[3.5]non-1-en-7-yl)-4-(trifluoromethyl)quinoline-2-carboxylic acid]
5.87	O=C(O)c1cc2ccc(N3CCC4(C=C(c5c(-c6ccncc6Cl)noc5C5CC5)C4)CC3)cc2nn1 [Example 80, 7-(2-(3-(3-Chloropyridin-4-yl)-5-cyclopropylisoxazol-4-yl)-7-azaspiro[3.5]non-1-en-7-yl)cinnoline-3-carboxylic acid]
6.06	O=C(O)c1cc(C(F)(F)F)c2cc(N3CCC4(C=C(c5c(-c6ccc(F)cc6Cl)noc5C5CC5)C4)CC3)ccc2n1 [Example 96, 6-(2-(3-(2-Chloro-4-fluorophenyl)-5-cyclopropylisoxazol-4-yl)-7-azaspiro[3.5]non-1-en-7-yl)-4-(trifluoromethyl)quinoline-2-carboxylic acid]
6.29	CC1(c2onc(-c3c(Cl)cncc3Cl)c2C2=CC3(CCN(c4ccc5nc(C(=O)O)cc(C(F)(F)F)c5c4)CC3)C2)CC1 [Example 94, 6-(2-(3-(3,5-Dichloropyridin-4-yl)-5-(1-methylcyclopropyl)isoxazol-4-yl)-7-azaspiro[3.5]non-1-en-7-yl)-4-(trifluoromethyl)quinoline-2-carboxylic acid]
6.45	O=C(O)c1cc(C(F)(F)F)c2cc(N3CCC4(C=C(c5c(-c6c(F)cccc6F)noc5C5CC5)C4)CC3)ccc2n1 [Example 82, 6-(2-(5-Cyclopropyl-3-(2,6-difluorophenyl)isoxazol-4-yl)-7-azaspiro[3.5]non-1-en-7-yl)-4-(trifluoromethyl)quinoline-2-carboxylic acid]
6.69	Cc1cccc(Cl)c1-c1noc(C2CC2)c1C1=CC2(CCN(c3ccc4nc(C(=O)O)cc(C(F)(F)F)c4c3)CC2)C1 [Example 89, 6-(2-(3-(2-Chloro-6-methylphenyl)-5-cyclopropylisoxazol-4-yl)-7-azaspiro[3.5]non-1-en-7-yl)-4-(trifluoromethyl)quinoline-2-carboxylic acid]
6.82	O=C(O)c1cc(C(F)(F)F)c2cc(N3CCC4(C=C(c5c(-c6c(F)cccc6Cl)noc5C5CC5)C4)CC3)ccc2n1 [Example 88, 6-(2-(3-(2-Chloro-6-fluorophenyl)-5-cyclopropylisoxazol-4-yl)-7-azaspiro[3.5]non-1-en-7-yl)-4-(trifluoromethyl)quinoline-2-carboxylic acid]
6.90	CC(C)c1onc(-c2c(Cl)cccc2Cl)c1C1=CC2(CCN(c3ccc4nc(C(=O)O)cc(C(F)(F)F)c4c3)CC2)C1 [Example 84, 6-(2-(3-(2,6-Dichlorophenyl)-5-isopropylisoxazol-4-yl)-7-azaspiro[3.5]non-1-en-7-yl)-4-(trifluoromethyl)quinoline-2-carboxylic acid]
7.21	COc1cc(C(=O)O)nc2ccc(N3CCC4(C=C(c5c(-c6ccccc6C(F)(F)F)noc5C5CC5)C4)CC3)cc12 [Example 105, 6-(2-(5-Cyclopropyl-3-(2-(trifluoromethyl)phenyl)isoxazol-4-yl)-7-azaspiro[3.5]non-1-en-7-yl)-4-methoxyquinoline-2-carboxylic acid]
7.23	CC(C)Oc1cc(C(=O)O)nc2ccc(N3CCC4(C=C(c5c(-c6ccccc6C(F)(F)F)noc5C5CC5)C4)CC3)cc12 [Example 104, 6-(2-(5-Cyclopropyl-3-(2-(trifluoromethyl)phenyl)isoxazol-4-yl)-7-azaspiro[3.5]non-1-en-7-yl)-4-isopropoxyquinoline-2-carboxylic acid]
7.42	O=C(O)c1cc(C(F)(F)F)c2cc(N3CCC4(C=C(c5c(-c6c(Cl)cccc6Cl)noc5C5CC5)C4)CC3)ccc2n1 [Example 83, 6-(2-(5-Cyclopropyl-3-(2,6-dichlorophenyl)isoxazol-4-yl)-7-azaspiro[3.5]non-1-en-7-yl)-4-(trifluoromethyl)quinoline-2-carboxylic acid]
7.72	Cc1cccc(Cl)c1-c1noc(C2CC2)c1C1=CC2(CCN(c3nc4c(F)cc(C(=O)O)cc4s3)CC2)C1 [Example 103, 2-(2-(3-(2-Chloro-6-methylphenyl)-5-cyclopropylisoxazol-4-yl)-7-azaspiro[3.5]non-1-en-7-yl)-4-fluorobenzo[d]thiazole-6-carboxylic acid]
7.74	O=C(O)c1ccc2nc(N3CCC4(C=C(c5c(-c6ccccc6C(F)(F)F)noc5C5CC5)C4)CC3)sc2n1 [Example 102, 2-(2-(5-Cyclopropyl-3-(2-(trifluoromethyl)phenyl)isoxazol-4-yl)-7-azaspiro[3.5]non-1-en-7-yl)thiazolo[5,4-b]pyridine-5-carboxylic acid]
